Assay results reported in ChEMBL document CHEMBL5678809, “Preclinical characterization of GLPG0634, a selective inhibitor of JAK1, for the treatment of inflammatory diseases” (J Immunol, 2013).
The source made the active and inactive calls. No cut-off for these calls is given here.

How the values were obtained:
[1] = biological target: Tyrosine-protein kinase receptor UFO (Homo sapiens) (UniProt P30530); assay: Inhibition of Axl (unknown origin) at 1 uM relative to control
[2] = biological target: Serine/threonine-protein kinase BRSK1 (Homo sapiens) (UniProt Q8TDC3); assay: Inhibition of BrSK1 (unknown origin) at 1 uM relative to control
[3] = biological target: Calcium/calmodulin-dependent protein kinase type IV (Homo sapiens) (UniProt Q16566); assay: Inhibition of CaMK4 (unknown origin) at 1 uM relative to control
[4] = biological target: Cyclin-dependent kinase 2 (Homo sapiens, UniProt P24941); assay: Inhibition of CDK2 (unknown origin)
[5] = biological target: CDK7/Cyclin H/MNAT1 (Homo sapiens) (UniProt P51946+P50613+P51948); assay: Inhibition of CDK7/cyclinH/MAT1 (unknown origin) at 1 uM relative to control; format: protein-complex assay
[6] = biological target: Serine/threonine-protein kinase Chk2 (Homo sapiens) (UniProt O96017); assay: Inhibition of CHK2 (unknown origin) at 1 uM relative to control
Ephrin type-A receptor 5 = Ephrin type-A receptor 5 (Homo sapiens, UniProt P54756); assay: Inhibition of EPHA5 (unknown origin)
[7] = biological target: Ephrin type-A receptor 8 (Homo sapiens) (UniProt P29322); assay: Inhibition of EphA8 (unknown origin) at 1 uM relative to control
[8] = biological target: Macrophage colony-stimulating factor 1 receptor (Homo sapiens, UniProt P07333); assay: Inhibition of FMS (unknown origin)
[9] = biological target: Rhodopsin kinase GRK7 (Homo sapiens) (UniProt Q8WTQ7); assay: Inhibition of GRK7 (unknown origin) at 1 uM relative to control
[10] = biological target: Homeodomain-interacting protein kinase 1 (Homo sapiens) (UniProt Q86Z02); assay: Inhibition of HIPK1 (unknown origin) at 1 uM relative to control
[11] = biological target: Serine/threonine-protein kinase ICK (Homo sapiens, UniProt Q9UPZ9); assay: Inhibition of ICK (unknown origin)
[12] = biological target: Insulin receptor (Homo sapiens) (UniProt P06213); assay: Inhibition of IR (unknown origin) at 1 uM relative to control
[13] = biological target: Mitogen-activated protein kinase 1 (Homo sapiens) (UniProt P28482); assay: Inhibition of MAPK1 (unknown origin) at 1 uM relative to control
Misshapen-like kinase 1 = Misshapen-like kinase 1 (Homo sapiens, UniProt Q8N4C8); assay: Inhibition of MINK1 (unknown origin) at 1 uM relative to control
[14] = biological target: MAP kinase-interacting serine/threonine-protein kinase 2 (Homo sapiens, UniProt Q9HBH9); assay: Inhibition of MNK2 (unknown origin)
[15] = biological target: Ribosomal protein S6 kinase alpha-5 (Homo sapiens) (UniProt O75582); assay: Inhibition of MSK1 (unknown origin) at 1 uM relative to control
[16] = biological target: Serine/threonine-protein kinase mTOR (Homo sapiens) (UniProt P42345); assay: Inhibition of mTOR (unknown origin) at 1 uM relative to control
[17] = biological target: Serine/threonine-protein kinase Nek11 (Homo sapiens) (UniProt Q8NG66); assay: Inhibition of NEK11 (unknown origin) at 1 uM relative to control
[18] = biological target: Serine/threonine-protein kinase NLK (Homo sapiens) (UniProt Q9UBE8); assay: Inhibition of NLK (unknown origin) at 1 uM relative to control
[19] = biological target: Serine/threonine-protein kinase PAK 6 (Homo sapiens, UniProt Q9NQU5); assay: Inhibition of PAK6 (unknown origin)
[20] = biological target: Serine/threonine-protein kinase pim-1 (Homo sapiens) (UniProt P11309); assay: Inhibition of Pim-1 (unknown origin) at 1 uM relative to control
[21] = biological target: Serine/threonine-protein kinase pim-2 (Homo sapiens) (UniProt Q9P1W9); assay: Inhibition of Pim-2 (unknown origin) at 1 uM relative to control
[22] = biological target: cGMP-dependent protein kinase 1 (Homo sapiens) (UniProt Q13976); assay: Inhibition of PKG1 (unknown origin) at 1 uM relative to control
[23] = biological target: Proto-oncogene tyrosine-protein kinase ROS (Homo sapiens) (UniProt P08922); assay: Inhibition of Ros (unknown origin) at 1 uM relative to control
[24] = biological target: Proto-oncogene tyrosine-protein kinase Src (Homo sapiens) (UniProt P12931); assay: Inhibition of Src (unknown origin) (1 to 530 residues) at 1 uM relative to control
[25] = biological target: SRSF protein kinase 1 (Homo sapiens) (UniProt Q96SB4); assay: Inhibition of SRPK1 (unknown origin) at 1 uM relative to control
[26] = biological target: Tyrosine-protein kinase SYK (Homo sapiens, UniProt P43405); assay: Inhibition of SYK (unknown origin)
[27] = biological target: Mitogen-activated protein kinase kinase kinase 7 (Homo sapiens, UniProt O43318); assay: Inhibition of TAK1 (unknown origin)
[28] = biological target: Testis-specific serine/threonine-protein kinase 1 (Homo sapiens) (UniProt Q9BXA7); assay: Inhibition of TSSK1 (unknown origin) at 1 uM relative to control
[29] = biological target: Testis-specific serine/threonine-protein kinase 2 (Homo sapiens) (UniProt Q96PF2); assay: Inhibition of TSSK2 (unknown origin) at 1 uM relative to control
[30] = biological target: Tyrosine-protein kinase Mer (Homo sapiens) (UniProt Q12866); assay: Inhibition of Mer (unknown origin) at 1 uM relative to control
[31] = Cmax in CD-1 mouse at 1 mg/kg, iv measured upto 8 hrs by LC-MS analysis; format: ADME, organism-based; conditions: in vivo
[32] = Half life in Sprague-Dawley rat at 1 mg/kg, iv measured upto 8 hrs by LC-MS analysis; format: ADME, organism-based; conditions: in vivo
[33] = Cmax in Sprague-Dawley rat at 5 mg/kg, po measured upto 24 hrs by LC-MS analysis; format: ADME, organism-based; conditions: in vivo
[34] = Tmax in Dark Agouti rat at 3 to 30 mg/kg, po; format: ADME, organism-based; conditions: in vivo, dose 3-30 mg/kg
Mus musculus [35] = assay: Antiarthritic activity against collagen-induced arthritis DBA/1J mouse model assessed as reduction in clinical score at 50 mg/kg, po administered twice daily for 14 days; format: functional, organism-based; conditions: time 14.0 day
Mus musculus [36] = assay: Antiarthritic activity against collagen-induced arthritis DBA/1J mouse model assessed as bone degradation by measuring lesion score in hind paw at 50 mg/kg, po administered twice daily for 14 days by histological analysis; format: functional, organism-based; conditions: time 14.0 day
Mus musculus [37] = assay: Antiarthritic activity against collagen-induced arthritis DBA/1J mouse model assessed as reduction in IL-6 expression at 50 mg/kg, po measured for 4 hrs; format: functional, organism-based
Mus musculus [38] = assay: Antiarthritic activity against collagen-induced arthritis DBA/1J mouse model assessed as M-CSF1 level in serum at 50 mg/kg, po measured for 4 hrs by luminex analysis (reference value: 11.1 +/- 1.3 ng/ml); format: functional
Mus musculus [39] = assay: Antiarthritic activity against collagen-induced arthritis DBA/1J mouse model assessed as IL-1alpha level in serum at 50 mg/kg, po measured for 4 hrs by luminex analysis (reference value: 359 +/- 83.8 ng/ml); format: functional

Chain of Proto-oncogene tyrosine-protein kinase ROS (Homo sapiens) (P08922 whole entry, the tested form may be a part): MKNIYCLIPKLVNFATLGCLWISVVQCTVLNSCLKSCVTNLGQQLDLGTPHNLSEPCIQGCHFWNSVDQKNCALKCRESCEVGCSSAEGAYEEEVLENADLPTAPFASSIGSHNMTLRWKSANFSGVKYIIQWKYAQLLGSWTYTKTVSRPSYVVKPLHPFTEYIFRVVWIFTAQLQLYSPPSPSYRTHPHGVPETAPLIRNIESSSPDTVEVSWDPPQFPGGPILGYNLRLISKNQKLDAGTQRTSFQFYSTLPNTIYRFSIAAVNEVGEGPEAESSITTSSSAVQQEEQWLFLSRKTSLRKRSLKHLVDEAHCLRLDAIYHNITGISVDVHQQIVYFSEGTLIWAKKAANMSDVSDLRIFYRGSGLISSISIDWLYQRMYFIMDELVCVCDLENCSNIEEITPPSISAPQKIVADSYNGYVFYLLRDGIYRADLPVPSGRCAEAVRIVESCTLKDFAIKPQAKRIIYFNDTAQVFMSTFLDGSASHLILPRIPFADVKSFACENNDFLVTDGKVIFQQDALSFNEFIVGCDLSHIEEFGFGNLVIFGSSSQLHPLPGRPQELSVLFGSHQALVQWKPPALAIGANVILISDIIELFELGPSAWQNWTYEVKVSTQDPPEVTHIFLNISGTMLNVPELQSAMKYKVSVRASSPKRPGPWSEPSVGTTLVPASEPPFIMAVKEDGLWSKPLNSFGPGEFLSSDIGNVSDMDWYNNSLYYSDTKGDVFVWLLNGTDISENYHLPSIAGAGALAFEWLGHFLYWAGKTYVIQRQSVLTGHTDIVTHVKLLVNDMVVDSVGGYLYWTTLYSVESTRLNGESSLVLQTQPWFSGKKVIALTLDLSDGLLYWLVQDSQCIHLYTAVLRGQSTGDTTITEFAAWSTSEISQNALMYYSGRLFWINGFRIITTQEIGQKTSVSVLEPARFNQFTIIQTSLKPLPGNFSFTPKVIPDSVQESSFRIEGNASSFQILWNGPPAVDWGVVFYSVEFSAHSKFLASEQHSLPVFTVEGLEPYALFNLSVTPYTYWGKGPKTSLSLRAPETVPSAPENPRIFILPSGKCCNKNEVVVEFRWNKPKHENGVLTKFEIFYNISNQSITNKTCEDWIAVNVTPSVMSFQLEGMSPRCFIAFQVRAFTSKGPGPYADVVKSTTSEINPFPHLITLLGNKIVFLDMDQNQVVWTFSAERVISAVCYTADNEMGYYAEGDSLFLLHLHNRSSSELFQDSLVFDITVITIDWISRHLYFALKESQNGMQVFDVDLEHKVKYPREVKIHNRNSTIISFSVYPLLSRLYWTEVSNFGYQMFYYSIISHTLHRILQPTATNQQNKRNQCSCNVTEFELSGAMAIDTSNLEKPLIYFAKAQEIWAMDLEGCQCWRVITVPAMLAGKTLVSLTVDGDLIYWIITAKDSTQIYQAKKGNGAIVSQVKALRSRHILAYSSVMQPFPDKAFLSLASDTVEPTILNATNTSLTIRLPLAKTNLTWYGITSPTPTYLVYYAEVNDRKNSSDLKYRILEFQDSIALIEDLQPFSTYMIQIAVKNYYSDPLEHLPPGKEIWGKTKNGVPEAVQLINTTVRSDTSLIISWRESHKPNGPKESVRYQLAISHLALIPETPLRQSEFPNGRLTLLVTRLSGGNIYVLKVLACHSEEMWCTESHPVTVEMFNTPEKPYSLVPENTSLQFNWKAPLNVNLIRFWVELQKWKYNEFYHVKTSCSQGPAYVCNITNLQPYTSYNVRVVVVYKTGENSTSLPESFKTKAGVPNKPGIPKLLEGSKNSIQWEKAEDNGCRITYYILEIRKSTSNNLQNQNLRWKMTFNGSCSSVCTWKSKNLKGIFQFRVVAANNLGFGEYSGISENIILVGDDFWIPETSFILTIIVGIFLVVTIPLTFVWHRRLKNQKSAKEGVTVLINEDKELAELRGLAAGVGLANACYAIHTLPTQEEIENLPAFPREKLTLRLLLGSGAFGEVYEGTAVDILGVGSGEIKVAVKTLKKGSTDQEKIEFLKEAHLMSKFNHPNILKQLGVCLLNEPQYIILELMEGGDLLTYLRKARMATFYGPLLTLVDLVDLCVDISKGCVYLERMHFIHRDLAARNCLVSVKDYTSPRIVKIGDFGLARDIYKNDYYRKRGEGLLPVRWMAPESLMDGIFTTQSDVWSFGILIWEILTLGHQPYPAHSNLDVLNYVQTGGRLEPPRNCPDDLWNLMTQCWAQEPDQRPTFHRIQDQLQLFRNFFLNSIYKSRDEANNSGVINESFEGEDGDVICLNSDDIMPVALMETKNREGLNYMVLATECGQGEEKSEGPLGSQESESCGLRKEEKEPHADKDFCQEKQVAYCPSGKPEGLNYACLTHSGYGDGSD
Chain of Serine/threonine-protein kinase pim-2 (Homo sapiens) (Q9P1W9 whole entry, looked up): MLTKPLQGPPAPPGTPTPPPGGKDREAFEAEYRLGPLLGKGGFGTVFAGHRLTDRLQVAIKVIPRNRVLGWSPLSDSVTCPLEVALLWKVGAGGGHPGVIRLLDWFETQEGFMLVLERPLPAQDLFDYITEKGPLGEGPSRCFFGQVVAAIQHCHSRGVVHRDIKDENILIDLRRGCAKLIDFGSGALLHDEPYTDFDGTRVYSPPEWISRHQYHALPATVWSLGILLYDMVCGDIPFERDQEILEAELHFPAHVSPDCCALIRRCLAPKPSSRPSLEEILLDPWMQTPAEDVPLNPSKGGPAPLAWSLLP
Chain of Ribosomal protein S6 kinase alpha-5 (Homo sapiens) (O75582 whole entry, looked up): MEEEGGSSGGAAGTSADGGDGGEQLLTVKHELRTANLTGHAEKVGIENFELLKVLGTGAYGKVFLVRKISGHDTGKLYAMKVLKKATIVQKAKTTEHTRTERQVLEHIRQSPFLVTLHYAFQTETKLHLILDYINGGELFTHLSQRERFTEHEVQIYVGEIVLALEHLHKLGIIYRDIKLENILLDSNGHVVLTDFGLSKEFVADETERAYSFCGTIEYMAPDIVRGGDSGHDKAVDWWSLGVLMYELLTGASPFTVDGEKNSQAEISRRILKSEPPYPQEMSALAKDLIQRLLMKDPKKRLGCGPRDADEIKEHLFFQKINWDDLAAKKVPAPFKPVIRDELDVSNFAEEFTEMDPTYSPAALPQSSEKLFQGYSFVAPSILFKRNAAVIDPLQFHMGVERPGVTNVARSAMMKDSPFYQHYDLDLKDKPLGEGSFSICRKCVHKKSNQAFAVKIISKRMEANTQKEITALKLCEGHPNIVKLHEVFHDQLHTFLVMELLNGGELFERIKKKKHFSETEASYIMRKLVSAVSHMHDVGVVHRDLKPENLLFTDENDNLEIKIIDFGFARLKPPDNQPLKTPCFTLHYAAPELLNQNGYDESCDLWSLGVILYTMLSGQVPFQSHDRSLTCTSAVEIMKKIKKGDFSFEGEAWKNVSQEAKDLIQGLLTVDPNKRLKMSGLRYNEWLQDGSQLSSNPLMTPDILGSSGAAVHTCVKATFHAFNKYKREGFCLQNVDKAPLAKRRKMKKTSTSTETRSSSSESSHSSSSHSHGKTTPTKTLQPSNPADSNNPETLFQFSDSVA
Chain of cGMP-dependent protein kinase 1 (Homo sapiens) (Q13976 whole entry): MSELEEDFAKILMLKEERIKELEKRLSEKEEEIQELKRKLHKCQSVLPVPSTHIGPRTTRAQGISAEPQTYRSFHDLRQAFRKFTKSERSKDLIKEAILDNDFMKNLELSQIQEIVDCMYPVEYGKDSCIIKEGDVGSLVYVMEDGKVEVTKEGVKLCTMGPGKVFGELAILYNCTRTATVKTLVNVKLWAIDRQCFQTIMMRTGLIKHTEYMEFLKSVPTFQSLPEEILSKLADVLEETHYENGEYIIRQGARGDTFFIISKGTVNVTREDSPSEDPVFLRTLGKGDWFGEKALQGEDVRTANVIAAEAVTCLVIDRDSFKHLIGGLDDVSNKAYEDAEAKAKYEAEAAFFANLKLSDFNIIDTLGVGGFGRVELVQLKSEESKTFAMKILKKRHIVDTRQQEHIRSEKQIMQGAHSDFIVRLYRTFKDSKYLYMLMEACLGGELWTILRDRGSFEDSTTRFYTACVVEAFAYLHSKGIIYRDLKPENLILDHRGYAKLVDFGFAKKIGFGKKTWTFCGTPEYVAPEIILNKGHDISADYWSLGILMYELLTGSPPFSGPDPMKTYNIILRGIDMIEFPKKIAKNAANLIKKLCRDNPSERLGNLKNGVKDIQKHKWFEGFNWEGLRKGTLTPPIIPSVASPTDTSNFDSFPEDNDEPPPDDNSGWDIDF
Chain of Serine/threonine-protein kinase Nek11 (Homo sapiens) (Q8NG66 whole entry): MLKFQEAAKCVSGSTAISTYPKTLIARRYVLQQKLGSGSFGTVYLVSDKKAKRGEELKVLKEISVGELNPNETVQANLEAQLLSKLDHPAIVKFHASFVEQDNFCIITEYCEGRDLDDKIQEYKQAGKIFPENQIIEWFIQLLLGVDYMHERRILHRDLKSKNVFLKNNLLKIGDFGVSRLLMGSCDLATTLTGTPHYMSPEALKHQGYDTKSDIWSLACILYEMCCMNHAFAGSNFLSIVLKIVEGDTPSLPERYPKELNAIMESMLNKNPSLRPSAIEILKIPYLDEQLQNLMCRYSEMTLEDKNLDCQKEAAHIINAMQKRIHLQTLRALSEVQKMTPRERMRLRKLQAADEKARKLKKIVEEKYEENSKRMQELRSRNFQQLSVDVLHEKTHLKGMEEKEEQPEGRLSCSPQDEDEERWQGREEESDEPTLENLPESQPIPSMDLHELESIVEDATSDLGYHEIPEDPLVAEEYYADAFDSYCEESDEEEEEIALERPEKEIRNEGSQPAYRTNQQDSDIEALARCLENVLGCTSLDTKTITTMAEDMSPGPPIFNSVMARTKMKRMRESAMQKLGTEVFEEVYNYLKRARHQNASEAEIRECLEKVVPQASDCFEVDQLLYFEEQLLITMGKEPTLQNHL
Chain of Serine/threonine-protein kinase pim-1 (Homo sapiens) (P11309 whole entry, looked up): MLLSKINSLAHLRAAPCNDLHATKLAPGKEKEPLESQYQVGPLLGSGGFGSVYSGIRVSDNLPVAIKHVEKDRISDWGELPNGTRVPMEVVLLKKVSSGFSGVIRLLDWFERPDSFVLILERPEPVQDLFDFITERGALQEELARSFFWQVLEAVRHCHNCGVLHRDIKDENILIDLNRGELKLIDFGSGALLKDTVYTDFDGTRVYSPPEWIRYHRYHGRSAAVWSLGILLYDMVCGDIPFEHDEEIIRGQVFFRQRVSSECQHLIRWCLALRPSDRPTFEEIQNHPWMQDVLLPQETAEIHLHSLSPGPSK

- inhibition [1]: -5%
- inhibition [2]: -5%
- inhibition [3]: -5%
- IC50 [4]: > 10 µM
- inhibition [5]: 12%
- inhibition [6]: 6%
- IC50 (Ephrin type-A receptor 5): > 10 µM
- inhibition [7]: 1%
- IC50 [8]: 0.489 µM
- inhibition [9]: -8%
- inhibition [10]: -8%
- IC50 [11]: > 10 µM
- inhibition [12]: -1%
- inhibition [13]: 1%
- inhibition (Misshapen-like kinase 1): -2%
- IC50 [14]: > 10 µM
- inhibition [15]: -1%
- inhibition [16]: -7%
- inhibition [17]: -2%
- inhibition [18]: -6%
- IC50 [19]: > 10 µM
- inhibition [20]: -7%
- inhibition [21]: -7%
- inhibition [22]: -1%
- inhibition [23]: -9%
- inhibition [24]: 32%
- inhibition [25]: 4%
- IC50 [26]: > 10 µM
- IC50 [27]: > 10 µM
- inhibition [28]: 5%
- inhibition [29]: -5%
- inhibition [30]: 44%
- Cmax [31]: 637 ng/mL
- half-life [32]: 1.6 h
- Cmax [33]: 310 ng/mL
- Tmax [34]: ~1 h
SMILES: O=C(Nc1nc2cccc(-c3ccc(CN4CCS(=O)(=O)CC4)cc3)n2n1)C1CC1 [FILGOTINIB]
- Activity (Mus musculus [35]): Active
- Activity (Mus musculus [36]): Active
- Activity (Mus musculus [37]): Active
- Activity (Mus musculus [38]): 7.8 ng/mL
- Activity (Mus musculus [39]): 123 ng/mL
